Publication PMC2263054, “Functional evolution of the vitamin D and pregnane X receptors” (BMC Evolutionary Biology, 2007)

Assays:
[1] = test system: glyceraldehyde 3-phosphate dehydrogenase (GAPDH); test: zebrafish in vivo liver transcription, semi-quantitative RT-PCR: GAPDH; details: 15 mg/kg intraperitoneally, single dose, 48 hr
Description: Adult zebrafish were purchased from a commercial fish supplier and acclimatized for at least two-weeks in 20 L tanks with flow-through freshwater at 22°C. A single dose of 15 mg/kg of 5α-cyprinol, 5β-cyprinol 27-sulfate, 5α-scymnol or 5β-scymnol-27 sulfate, dissolved in saline, was injected intraperitoneally. A control group was injected with saline. After 48 hr, the animals were decapitated and livers of three fish (n = 5 each group) were removed, pooled and weighed, totalizing 15 fish per group. Fish were not fed throughout the experimental period.
To study the transcription of CYP3C1, ABCB5, PXR, GAPDH and β-actin genes in zebrafish, initial fragments of these genes were identified (Genbank: AW202769, Genbank: BQ284593, Genbank: AAM22215, Genbank: BC083506, Genbank: AF057040, respectively). […] Primer pairs for amplifying CYP3C1 fragment were 5'-[…]-3' (sense) and 5'-[…]-3' (antisense) and for amplifying ABCB5 were 5'-[…]-3' (sense) and 5'-[…]-3' (antisense). The PCR primers for PXR were 5'-[…]-3' (sense) and 5'-[…]-3' (antisense), for amplifying GAPDH were 5'-[…]-3' (sense) and 5' […] 3' (antisense) and for β-actin were 5'-[…]-3' (sense) and 5'-[…]-3' (antisense). RNA was isolated using Trizol (Invitrogen) according to manufacturer's instructions. […] The RNA integrity was checked by non-denaturing gel electrophoresis using 1 μg of total RNA in each sample.
The PXR, CYP3C1, ABCB5 and GAPDH transcript levels were quantified using Gel-Quant™ (Multiplexed Biotechologies) and β-actin was used to normalize the data. The Shapiro-Wilk W test was used to evaluate normality. When data were parametric the analysis was performed using Student t test; otherwise Mann Whitney U test was applied.

Sea lamprey VDR = molecular target: T1, Sea lamprey VDR (Petromyzon marinus, UniProt Q7ZZY9); type: cell-based; details: HepG2-NTCP cells, luciferase reporter; unit not given; also cells saying No effect
T1 sequence (Q7ZZY9 92-406): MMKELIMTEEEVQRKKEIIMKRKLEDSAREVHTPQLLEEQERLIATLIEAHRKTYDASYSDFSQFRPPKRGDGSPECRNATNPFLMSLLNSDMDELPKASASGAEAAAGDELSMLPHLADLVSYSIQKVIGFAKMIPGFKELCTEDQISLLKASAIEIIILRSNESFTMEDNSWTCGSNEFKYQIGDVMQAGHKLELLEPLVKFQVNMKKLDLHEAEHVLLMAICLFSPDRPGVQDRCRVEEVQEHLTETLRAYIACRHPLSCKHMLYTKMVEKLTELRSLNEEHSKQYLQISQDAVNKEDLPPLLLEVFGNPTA

Xenopus laevis VDR = molecular target: T2, Xenopus laevis VDR (Xenopus laevis, UniProt O13124); test: luciferase reporter transactivation assay in HepG2-NTCP cells, GAL4/xlVDR LBD chimera with tk-UAS-Luc; type: cell-based; details: HepG2-NTCP cells, luciferase reporter; unit not given; also cells saying No effect
T2 sequence (O13124 90-422): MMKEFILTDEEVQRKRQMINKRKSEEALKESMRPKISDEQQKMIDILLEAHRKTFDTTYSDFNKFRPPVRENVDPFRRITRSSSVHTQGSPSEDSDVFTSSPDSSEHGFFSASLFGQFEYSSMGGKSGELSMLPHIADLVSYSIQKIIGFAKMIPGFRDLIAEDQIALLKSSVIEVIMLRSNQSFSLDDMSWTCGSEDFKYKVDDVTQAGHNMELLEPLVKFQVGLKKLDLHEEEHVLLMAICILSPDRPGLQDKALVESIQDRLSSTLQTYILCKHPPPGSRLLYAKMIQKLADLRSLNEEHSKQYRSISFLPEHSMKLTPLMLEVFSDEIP

[2] = test system: 6β- and 12α-hydroxylation of testosterone; test: testosterone hydroxylation (HPLC) in African clawed frog primary hepatocytes; type: cell-based, Xenopus laevis; details: relative to vehicle control
Description: Xenopus laevis primary hepatocytes were cultured by a protocol adapted from a published report. Frogs are sacrificed with MS-222, rinsed with 70% ethanol, and the liver lobes perfused via the heart, initially with 375 mL Barth (88 mM NaCl, 1 mM K2SO4, and 10 mM HEPES-NaOH, pH 7.4) containing 0.82 mM MgCl2 and 0.1 mg/mL heparin, and then with 25 mL Barth containing 2.22 mM Ca(NO3)2, 2.74 mM CaCl2, and 200 U/mL type I collagenase (Worthington Chemicals, Lakewood, NJ). Livers are minced to fine pieces in 12.5 mL Barth-collagenase solution and then incubated for 10 min at room temperature, periodically disaggregating the liver pieces with a Pasteur pipette. The liver cells are then placed on a shaking incubator for 5 min at room temperature, followed by another 10 min of periodic pipetting to complete disaggregation. Cells are then filtered through a 130 μm Nitex nylon mesh (Fisher Scientific), following by spinning at 500 g for 5 min at 4°C. The supernatant is then aspirated and diluted to 50 mL with Barth plus MgCl2 and then allowed to settle while cooled in ice for 30 min. The supernatant is removed, and the cellular pellet is resuspended and subjected to one more round of nylon mesh filtration, dilution in Barth plus MgCl2, and settling while cooled in ice. The supernatant is removed and the remaining cells are washed once with Barth plus MgCl2 and then centrifuged at 500 g for 5 min at 4°C. The cells are then resuspended in 0.6 × Coon's Modified Ham's F-12 medium (Invitrogen) supplemented with 0.1 × Barth (88 mM NaCl, 1 mM K2SO4, 10 mM HEPES), 200 U/mL penicillin G, 100 μg/mL streptomycin sulfate, 2 mM glutamine, 0.2% glucose, and 10 μg/mL bovine insulin (Calbiochem), with the final pH adjusted to 7.5. […] Cells are cultured at 20°C in ambient atmosphere.
Testosterone metabolites were identified and quantitated by HPLC. […] The supernatant was then injected into the HPLC.

Ciona VDR/PXR = details: HepG2-NTCP cells, luciferase reporter; unit not given; also cells saying No effect

SMILES	liver transcription of GAPDH [1]	Sea lamprey VDR EC50 ± SD (Sea lamprey VDR)	Xenopus VDR EC50 ± SD (Xenopus laevis VDR)	effect on 6β- and 12α-hydroxylation of testosterone [2]	Ciona VDR/PXR EC50 ± SD (Ciona VDR/PXR)
C[C@H](CCCC(CO)COS(=O)(=O)O)[C@H]1CC[C@H]2[C@@H]3[C@H](O)C[C@H]4C[C@H](O)CC[C@]4(C)[C@H]3C[C@H](O)[C@]12C (stereo partly drawn) [5α-Cyprinol 27-sulfate]	2.38 ± 0.79 arbitrary units normalized to β-actin	No effect	No effect	neither activity was substantially increased relative to vehicle control	No effect
C[C@H](CCCC(CO)CO)[C@H]1CC[C@H]2[C@@H]3[C@H](O)C[C@H]4C[C@H](O)CC[C@]4(C)[C@H]3C[C@H](O)[C@]12C [5α-Cyprinol, 5α-cholestan-3α,7α,12α,26,27-pentol]	1.50 ± 0.88 arbitrary units normalized to β-actin	No effect	No effect	neither activity was substantially increased relative to vehicle control	No effect
